Assay results taken from patent publication US20190320654A1, “VOLATILE ORGANIC COMPOUNDS FOR INHIBITING FUNGAL GROWTH” (Georgia State University Research Foundation, Inc., priority 2014, published 2019).

Key:
P. destructans conidia = assay: VOC exposure assay with P. destructans conidia in a contained airspace; on anti-P. destructans activity, growth from conidia: key: +: growth from spores; −: no visible growth; format: cell-based, Pseudogymnoascus destructans; details: for inhibitory activity on conidia: 11 days of exposure; for anti-P. destructans activity against conidia / inhibition of conidia with activated carbon: 30 μl; for anti-P. destructans activity against conidia: closed system; for inhibition of conidia with activated carbon: control plates containing 1 g activated carbon
Description: (§1) Volatile organic compounds previously shown to be produced by bacteria [Chuankun X, et al. Soil Biol Biochem. 2004 36:1997-2004; Fernando W G D, et al. Soil Biol Biochem. 2005 37:955-64] were screened for anti-P. destructans activity via VOC exposure to spores and mycelial plugs. The VOCs included: decanal; 2-ethyl-1-hexanol; nonanal; benzothiazole; benzaldehyde; and N,N-dimethyloctylamine (Sigma-Aldrich, Missouri). All VOCs were chosen based on their identification in fungistatic soils and their observed production in bacteria [Chuankun X, et al. Soil Biol Biochem. 2004 36:1997-2004; Fernando W G D, et al. Soil Biol Biochem. 2005 37:955-64]. All VOCs purchased as pure, liquid, research grade reagents and used directly, without modification, in all subsequent assays. A single-compartment Petri plate (150 mm×15 mm) was used for a contained airspace to assess P. destructans growth characteristics in the presence of fungistatic VOCs. Ten microliters of P. destructans conidia suspension (10^6 conidia ml^−1 in PBS) was spread onto SDA plates (35 mm×10 mm). Aliquots of 30, 3.0, or 0.3 μl of each VOC corresponding to maximum possible relative concentrations ranging from 113 ppm (v/v) to 1.13 ppm (v/v) were pipetted onto a sterile filter paper disk (12.7 mm) on a watch glass (75 mm). Each VOC containing disk and watch glass was placed inside a large Petri plate (150 mm 9 15 mm) along with a P. destructans-inoculated SDA plate (35 mm×10 mm) (FIG. 6). P. destructans mycelial plugs cut from the leading edge of actively growing colonies were inserted into fresh SDA plates (35 mm×10 mm) and placed in large Petri plates (150 mm×15 mm) with each formulation or pure VOC containing paper disk and sealed with parafilm M (Sigma-Aldrich, Missouri). […] Unexposed cultures and the addition of activated carbon to exposure assays served as negative controls for each trial. Anti-P. destructans activity was scored on a plus/minus scale for conidia-inoculated plates, and the radial growth from mycelial plugs was used to determine percent inhibition by comparing growth area of VOC exposed plugs to unexposed controls. All assays were performed in triplicate and averaged.

[1] = test system: P. destructans mycelial plugs; assay: VOC exposure assay with P. destructans mycelial plugs, radial growth area; format: cell-based, Pseudogymnoascus destructans; details: for inhibition of radial mycelial growth: 3 μl, up to 14 days
Description: as §1
Filamentous fungi grow by hyphae elongation and not by distinct cellular division. Accordingly, measuring the difference between the area growth of control agent-exposed mycelial plugs and control plugs has been a vetted method for assessing antimicrobial susceptibility [Fernando W G D, et al. Soil Biol Biochem. 2005 37:955-64; Liu W, et al. Curr Res Bacteriol. 2008 1:128-34; Strobel G A, et al. Microbiology. 2007 153:2613-20]. The use of a ruler to measure the area of mycelial growth of filamentous fungi has its own challenges. Mycelial plugs will often grow asymmetrically, either naturally or because of exposure to the compound being tested. To provide more accurate measurement of mycelial growth, a digital photography and analysis technique was developed.
The GIMP (GNU Image Manipulation Program) is open-source, freely distributed software for image editing and authoring, compatible with GNU/Linux, Microsoft Windows, Mac OS X, Sun OpenSolaris, and FreeBSD operating systems. This software allows for the direct measurement of the number of pixels in a given selected area of a photograph. GIMP version 2.8.2 for Microsoft Windows was used at the time of this writing. A Nikon D3100 digital single lens reflex camera with an 18-55 mm lens was used to capture images. A standard three-leg tripod was used for support during capture.
The camera was attached to the tripod and aimed down to a surface to provide a consistent distance from the lens to the mycelial surface being photographed; ensuring the same pixel to millimeter ratio was retained for all acquired images. Images of mycelial plugs had their corresponding image numbers catalogued for later identification. […]

[2] = 3 μl VOC, 7 day exposure, incubated with activated carbon
[3] = 3 μl VOC, 10 day exposure, incubated with activated carbon
[4] = 30 μl VOC, incubated with activated carbon, 15° C.

CCCCC(CC)CO (stereo not drawn) [2-ethyl-1-hexanol]
anti-P. destructans activity, growth from conidia (P. destructans conidia; 3 μl VOC, 7 day exposure): − | anti-P. destructans activity, growth from conidia (P. destructans conidia; [2]): + | anti-P. destructans activity, growth from conidia (P. destructans conidia; 3 μl VOC, 10 day exposure): − | anti-P. destructans activity, growth from conidia (P. destructans conidia; [3]): + | inhibitory activity on conidia (P. destructans conidia; 3 μl): demonstrated inhibitory activity | anti-P. destructans activity, growth from conidia (P. destructans conidia; 30 μl VOC, 15° C.): − | anti-P. destructans activity, growth from conidia (P. destructans conidia; [4]): + | anti-P. destructans activity against conidia (P. destructans conidia; 15° C.): demonstrated anti-P. destructans activity | inhibition of conidia with activated carbon (P. destructans conidia): no inhibition

CCCCCCCCN(C)C [N,N-dimethyloctylamine]
effect on radial growth as compared to unexposed controls ([1]; 0.3 μl, 15° C.): induced growth | inhibition of radial mycelial growth ([1]; 15° C.): only minor reductions in radial growth | anti-P. destructans activity, growth from conidia (P. destructans conidia; 3 μl VOC, 7 day exposure): + | anti-P. destructans activity, growth from conidia (P. destructans conidia; [2]): + | anti-P. destructans activity, growth from conidia (P. destructans conidia; 3 μl VOC, 10 day exposure): + | anti-P. destructans activity, growth from conidia (P. destructans conidia; [3]): + | inhibition of growth from conidia (P. destructans conidia; 3 μl, 7 days): unable to completely inhibit | anti-P. destructans activity, growth from conidia (P. destructans conidia; 30 μl VOC, 15° C.): − | anti-P. destructans activity, growth from conidia (P. destructans conidia; [4]): − | anti-P. destructans activity against conidia (P. destructans conidia; 15° C.): demonstrated anti-P. destructans activity

CCCCCCCCCC=O [Decanal, decanal]
reduction in growth area ([1]; 0.3 μl, 4° C., 35 days post-inoculation): greater than 99% | inhibition of radial mycelial growth ([1]; 15° C.): only minor reductions in radial growth | reduction in growth as compared to unexposed controls ([1]; 30 μl, 15° C., 14 days of exposure): 83% | anti-P. destructans activity, growth from conidia (P. destructans conidia; 3 μl VOC, 7 day exposure): − | anti-P. destructans activity, growth from conidia (P. destructans conidia; [2]): + | anti-P. destructans activity, growth from conidia (P. destructans conidia; 3 μl VOC, 10 day exposure): − | anti-P. destructans activity, growth from conidia (P. destructans conidia; [3]): + | inhibitory activity on conidia (P. destructans conidia; 3 μl): demonstrated inhibitory activity | anti-P. destructans activity, growth from conidia (P. destructans conidia; 30 μl VOC, 15° C.): − | anti-P. destructans activity, growth from conidia (P. destructans conidia; [4]): + | anti-P. destructans activity against conidia (P. destructans conidia; 15° C.): demonstrated anti-P. destructans activity | inhibition of conidia with activated carbon (P. destructans conidia): no inhibition

O=Cc1ccccc1 [Benzaldehyde, benzaldehyde]
anti-P. destructans activity, growth from conidia (P. destructans conidia; 3 μl VOC, 7 day exposure): − | anti-P. destructans activity, growth from conidia (P. destructans conidia; [2]): + | anti-P. destructans activity, growth from conidia (P. destructans conidia; 3 μl VOC, 10 day exposure): + | anti-P. destructans activity, growth from conidia (P. destructans conidia; [3]): + | anti-P. destructans activity, growth from conidia (P. destructans conidia; 30 μl VOC, 15° C.): − | anti-P. destructans activity, growth from conidia (P. destructans conidia; [4]): + | anti-P. destructans activity against conidia (P. destructans conidia; 15° C.): demonstrated anti-P. destructans activity | inhibition of conidia with activated carbon (P. destructans conidia): no inhibition

CCCCCCCCC=O [Nonanal, nonanal]
anti-P. destructans activity, growth from conidia (P. destructans conidia; 3 μl VOC, 7 day exposure): − | anti-P. destructans activity, growth from conidia (P. destructans conidia; [2]): + | anti-P. destructans activity, growth from conidia (P. destructans conidia; 3 μl VOC, 10 day exposure): − | anti-P. destructans activity, growth from conidia (P. destructans conidia; [3]): + | inhibitory activity on conidia (P. destructans conidia; 3 μl): demonstrated inhibitory activity | anti-P. destructans activity, growth from conidia (P. destructans conidia; 30 μl VOC, 15° C.): − | anti-P. destructans activity, growth from conidia (P. destructans conidia; [4]): − | anti-P. destructans activity against conidia (P. destructans conidia; 15° C.): demonstrated anti-P. destructans activity

c1ccc2scnc2c1 [Benzothiazole, benzothiazole]
reduction in radial growth ([1]; 0.3 μl, 15° C., 14 days of exposure): 60% | anti-P. destructans activity, growth from conidia (P. destructans conidia; 3 μl VOC, 7 day exposure): − | anti-P. destructans activity, growth from conidia (P. destructans conidia; [2]): + | anti-P. destructans activity, growth from conidia (P. destructans conidia; 3 μl VOC, 10 day exposure): + | anti-P. destructans activity, growth from conidia (P. destructans conidia; [3]): + | colony morphology of cultures from conidia (P. destructans conidia; 3 μl, without activated carbon): unique colony morphology characterized by increased pigmentation of the underside of the culture and diffusion of pigment into the growth media | anti-P. destructans activity, growth from conidia (P. destructans conidia; 30 μl VOC, 15° C.): − | anti-P. destructans activity, growth from conidia (P. destructans conidia; [4]): − | anti-P. destructans activity against conidia (P. destructans conidia; 15° C.): demonstrated anti-P. destructans activity

CSSSC [dimethyltrisulfide]
anti-P. destructans activity against conidia (P. destructans conidia; 15° C.): demonstrated anti-P. destructans activity
